From patent publication US5217986A, “Anti-allergy agent” (Harbor Branch Oceanographic Institution, Inc., priority 1992, dated 1993)

Columns and labels:
[1] = molecular target: T1, H3 receptor (Cavia porcellus, UniProt Q9JI35); experiment: H3 receptor binding assay ([3H]R-α-methylhistamine, guinea pig brain membranes)
T1 construct: The source of the H3 receptors in this experiment was guinea pig brain; from tissue; host or cells: guinea pig brain membranes
Procedure: The source of the H3 receptors in this experiment was guinea pig brain. The animals used weighed 400-600 g. The tissue was homogenized using a Polytron in a solution of 50 mM Tris, pH 7.5. The final concentration of tissue in the homogenization buffer was 10% w/v. The homogenates were centrifuged at 1000× g for 10 minutes in order to remove clumps of tissue and debris. The resulting supermatants were then centrifuged at 50,000× g for 20 minutes in order to sediment the membranes, which were next washed 3 times in homogenization buffer (50,000× g for 20 minutes each). The membranes were frozen and stored at -70° C. until needed.
The compound to be tested was dissolved in DMSO (dimethyl sulfoxide) and then diluted into the binding buffer (50 mM Tris, pH 7.5) such that the final concentration was 2 μg/mL with 0.1% DMSO. Membranes were then added (400 μg of protein) to the reaction tubes. The reaction was started by the addition of 3 nM [^3 H]R-α-methylhistamine (8.8 Ci/mmol) and incubated at 30° C. for 30 minutes. Bound ligand was separated from unbound ligand by filtration, and the amount of radioactive ligand bound to the membranes was quantitated by liquid scintillation spectrometry. The incubation was performed in duplicate and the standard error was less than 10%.

[2] = system: guinea pig ileum; experiment: Guinea pig ileum assay (inhibition of Rα-methylhistamine effect on electrical field stimulated contractions)
Procedure: Male guinea pigs (450-500 g) were sacrificed by cervical dislocation. Portions of the ileum (20-40 cm) were removed and placed in Tyrodes solution (NaCl, 8.0; KCl, 0.2; MgCl2.6H2 O, 0.2; CaCl2, 0.13; NaH2 PO4, 0.06; dextrose, 1.0; NaHCO3, 1.0 g/l). The ilea were cut into 2.5 cm segments, mounted between platinum wire coaxial electrodes and placed in water-jacketed organ baths containing 25 ml of the Tyrodes solution. Bath fluid temperature was maintained at 37° C. and aerated with 95% 02-5% CO2. The muscles were suspended from isometric force transducers (Grass FT03C) under 0.3 g resting tension. Contractions were amplified on a Buxco tension monitor and recorded on a Harvard polygraph. […] Once this 80% response was determined it was evoked every 60 seconds throughout the experiment. […]
Rα-methylhistamine inhibits the electrical field stimulated contractions of the guinea pig ileum and was used as the H3 agonist reference standard. H3 agonists were studied for their ability to inhibit the electrical field stimulated contractions and their activity was expressed as a percentage of the maximum Rα-methylhistamine effect. […]
Relative potency for agonists was determined from the pD2 (Furchgott, R. F., The pharmacology of Vascular Smooth Muscle. Pharm. Rev. 7, 183, 1955.) calculations. Relative potency for antagonists was determined from pA2 calculations. […]

T1 sequence (Q9JI35 whole entry): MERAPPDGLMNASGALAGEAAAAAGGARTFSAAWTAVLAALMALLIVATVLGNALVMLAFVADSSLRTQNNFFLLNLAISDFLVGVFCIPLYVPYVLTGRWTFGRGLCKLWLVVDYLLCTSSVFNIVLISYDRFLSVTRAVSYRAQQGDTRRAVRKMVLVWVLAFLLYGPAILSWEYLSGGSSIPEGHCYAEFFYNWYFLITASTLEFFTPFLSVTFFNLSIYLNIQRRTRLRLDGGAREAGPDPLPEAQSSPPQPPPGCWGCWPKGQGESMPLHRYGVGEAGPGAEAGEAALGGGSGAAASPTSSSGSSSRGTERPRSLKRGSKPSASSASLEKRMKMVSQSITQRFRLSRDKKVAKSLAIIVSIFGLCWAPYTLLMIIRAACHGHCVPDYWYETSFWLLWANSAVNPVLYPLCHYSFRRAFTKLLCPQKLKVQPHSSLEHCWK

IC50 ([1]; guinea pig brain membranes, 3 nM [3H]R-α-methylhistamine, 30° C., 30 minutes, pH 7.5): 498 nM
activity in an H3 receptor assay ([1]; no concentration stated): active
Compound: COc1ccc(CC(=NO)C(=O)NCCc2c[nH]cn2)cc1Br [verongamine]
Guinea Pig Ileum ([2]; @ 1 μg/mL, 1 μM chlorpheniramine present, 37° C.): antagonist
activity on guinea pig ileum ([2]; no concentration stated): H3 antagonist
